Test results from the SangsterLogP compilation.

Test: method code SF-AS, from PMID: 4559156
Conditions: pH 7.4

Row | Structure (SMILES) | logD
1 | O=[N+]([O-])c1cnc(/N=C2/OCCN2CCO)s1 | 0.43
2 | CC(=O)OCCN1CCS/C1=N/c1ncc([N+](=O)[O-])s1 | 1.88
3 | CC1CN(C)C(=Nc2ncc([N+](=O)[O-])s2)N1 (stereo not given) | 1.95
4 | CN1CCN=C1Nc1ncc([N+](=O)[O-])s1 | 1.8
5 | O=[N+]([O-])c1cnc(N=C2NCCN2CCO)s1 | 1.23
6 | O=[N+]([O-])c1cnc(N=C2NCCO2)s1 | 0.57
7 | CC1N=C(Nc2ncc([N+](=O)[O-])s2)OC1(C)C (stereo not given) | 1.88
8 | CN1CC(O)CN(C)C1=Nc1ncc([N+](=O)[O-])s1 (stereo not given) | 0.16
9 | CC1CNC(=Nc2ncc([N+](=O)[O-])s2)N1C (stereo not given) | 2.02
10 | CC1(C)NC(=Nc2ncc([N+](=O)[O-])s2)OC1(C)C | 2.4
11 | CN1CCN(C)C1=Nc1ncc([N+](=O)[O-])s1 | 0.92
12 | O=[N+]([O-])c1cnc(NC2=NCCN2)s1 | 1.38
13 | O=[N+]([O-])c1cnc(/N=C2/SCCN2CCO)s1 | 1.28
14 | O=[N+]([O-])c1cnc(N=C2NCC(O)CN2)s1 (stereo not given) | 0.74
15 | CCN1CCNC1=Nc1ncc([N+](=O)[O-])s1 | 2.28
